These are literature values, as cited in Sander's compilation of Henry's law constants (doi:10.1007/978-1-4612-3850-8_1).

The structures appear in SMILES notation. “And” between values parts separate entries of the source, which are not always exact repeats. Identical values can stand only once.

Series [1] is described as follows: Henry solubility constant Hcp at 293 K (mol/(m3 Pa)). Particulars: reference: Suntio et al. (1988); cited value.
Series [2] in a line: Henry solubility constant Hcp at 298.15 K (mol/(m3 Pa)). Particulars: reference: Suntio et al. (1988); cited value.

In the case of `ClC(Cl)=C(c1ccc(Cl)cc1)c1ccccc1Cl` [o,p'-DDE], in series [1], the “Henry solubility constant Hcp at 293 K” value was 0.14. Turning to `ClC1C(Cl)C(Cl)C(Cl)C(Cl)C1Cl` (stereo not drawn) [β-1,2,3,4,5,6-hexachlorocyclohexane], the “Henry solubility constant Hcp” value in series [2] was 56. Turning to `CC1=CC(=O)CC(C)(C)C1` [3,5,5-trimethyl-2-cyclohexen-1-one], the “Henry solubility constant Hcp at 293 K” value in series [1] was 1.8. For the compound `ClC1=C(Cl)[C@]2(Cl)[C@@H]3[C@H]4C[C@H]([C@@H]5O[C@H]45)[C@@H]3[C@@]1(Cl)C2(Cl)Cl` [endrin], in series [2], the “Henry solubility constant Hcp” value was 5600. For the compound `CNC(=O)O/N=C/C(C)(C)SC` [aldicarb], the “Henry solubility constant Hcp at 293 K” value in series [1] was 1.9. In the case of `ClC1=C(Cl)[C@]2(Cl)[C@@H]3[C@@H]4C[C@@H]([C@H]5O[C@@H]45)[C@@H]3[C@@]1(Cl)C2(Cl)Cl` [dieldrin], the “Henry solubility constant Hcp at 293 K” value in series [1] is 50. `ClC1=C(Cl)[C@]2(Cl)C3C(Cl)C(Cl)CC3[C@@]1(Cl)C2(Cl)Cl` (some centres undefined) [chlordane]: the “Henry solubility constant Hcp” value in series [2] was 0.2 and 0.11.

For `C=CC=O` [propenal], the “Henry solubility constant Hcp at 293 K” value in series [1] was 0.18.

On to `ClC1C(Cl)C(Cl)C(Cl)C(Cl)C1Cl` (stereo not drawn) [α-1,2,3,4,5,6-hexachlorocyclohexane], for which the “Henry solubility constant Hcp” value in series [2] was 1.8. For `ClC(Cl)=C(c1ccc(Cl)cc1)c1ccc(Cl)cc1` [1,1-dichloro-2,2-bis-(4-chlorophenyl)-ethene], in series [2], the “Henry solubility constant Hcp” value was 0.45.

For `ClC1(Cl)C2(Cl)C3(Cl)C4(Cl)C(Cl)(Cl)C5(Cl)C3(Cl)C1(Cl)C5(Cl)C24Cl` (centres undefined) [mirex], the “Henry solubility constant Hcp at 293 K” value in series [1] is 0.00099. As to `ClC1C(Cl)C(Cl)C(Cl)C(Cl)C1Cl` (centres undefined) [γ-1,2,3,4,5,6-hexachlorocyclohexane], the “Henry solubility constant Hcp at 293 K” value in series [1] is 20. Regarding `Clc1ccc(C(c2ccccc2Cl)C(Cl)Cl)cc1` (centres undefined) [mitotane], the “Henry solubility constant Hcp” value in series [2] was 560. For the compound `Clc1ccc(C(c2ccc(Cl)cc2)C(Cl)(Cl)Cl)cc1` [1,1,1-trichloro-2,2-bis-(4-chlorophenyl)-ethane], the “Henry solubility constant Hcp” value in series [2] is 0.17.
